# Test results from US4959368A, “Therapeutic agent for neurological diseases” (Mitsui Petrochemical Industries Ltd., priority 1986, dated 1990).
# System: mouse neuroblastoma cell line neuro-2a
# Assay: Activity on neuro-2a, cells with outgrown neurites
# Format: cell-based
# Experimental: In order to examine the effects of the test compounds, the following method was also employed.
# Mouse neuro 2a cells in the logarithmic growth period in the Dulbecco's modified Eagle's medium (DMEM) containing 10% FCS was seeded in a 48-well plate so that the number of cells was 1,000 cells/well, and cultured for one day in 0.25 ml of the culture fluid in each well. The culture medium was then replaced by a medium containing each of the test compounds and FCS, and the cells were further cultured for 24 hours. Then, a 4% aqueous glutaraldehyde solution in the same amount as the medium (0.25 ml) was added, and the culture fluid was left to stand at room temperature for 2 hours to fix the cells. After washing with water, a 0.05% aqueous solution of methylene blue was added to stain the cells. Under a microscope, the number of cells containing outgrown neurites (cells having at least one neutrite with a length at least two times as large as the long diameter of the cell) was counted visually, and the proportion of these cells in the entire cells was calculated. The well was observed over 5 or more visual fields (at least 2% of the entire surface area of the well) continuous to the left and right from a mark put at the center of the well, and more than 200 cells was counted. One drug compound was used in 6 different concentrations at most, and three runs were conducted for each concentration.
# [1] = Table 3 Run No. 2, 0.3 mM, control 1.9 ± 0.9
# [2] = Table 3 Run No. 2, 1 mM, control 1.9 ± 0.9
# [3] = Table 3 Run No. 10, 0.1 mM, control 1.7 ± 0.7
# [4] = Table 3 Run No. 9, 0.03 mM, control 2.0 ± 1.0
# [5] = Table 3 Run No. 8, 0.3 mM, control 3.7 ± 0.4
# [6] = Table 3 Run No. 8, 0.5 mM, control 3.7 ± 0.4
# [7] = Table 3 Run No. 8, 1 mM, control 3.7 ± 0.4
# [8] = Table 3 Run No. 4, 0.3 mM, control 3.1 ± 0.2
# [9] = Table 3 Run No. 4, 0.5 mM, control 3.1 ± 0.2
# [10] = Table 3 Run No. 4, 1 mM, control 3.1 ± 0.2
# [11] = Table 3 Run No. 4, 0.1 mM, control 3.1 ± 0.2
# [12] = Table 3 second Run No. 5, 1 mM, control 4.5 ± 0.3
# [13] = Table 3 Run No. 9, 0.1 mM, control 2.0 ± 1.0
# [14] = Table 3 Run No. 9, 0.3 mM, control 2.0 ± 1.0
# [15] = Table 3 Run No. 9, 1 mM, control 2.0 ± 1.0
# [16] = Table 3 Run No. 9, 3 mM, control 2.0 ± 1.0
smiles,measurement,setting,value
CCCN(CCC)C(=O)c1cnc(N2CCNCC2)nc1NCC [Compound 104],Cells having neurites with a length at least twice the long diameter of cell/total number of cells,[1],10.6 ± 4.6%
same,Cells having neurites with a length at least twice the long diameter of cell/total number of cells,[2],5.3 ± 1.8%
CCN(CC)C(=O)c1cnc(N2CCNCC2)nc1NC(C)C [Compound 108],Cells having neurites with a length at least twice the long diameter of cell/total number of cells,[1],4.6 ± 1.2%
same,Cells having neurites with a length at least twice the long diameter of cell/total number of cells,[2],6.9 ± 1.6%
CCN(CC)C(=O)c1cnc(N2CCNCC2)nc1OC [Compound 112],Cells having neurites with a length at least twice the long diameter of cell/total number of cells,[2],3.5 ± 0.5%
COC(=O)c1cnc(N2CCNCC2)nc1NC(C)C [Compound 116],Cells having neurites with a length at least twice the long diameter of cell/total number of cells,"Table 3 Run No. 10, 0.01 mM, control 1.7 ± 0.7",7.5 ± 2.2%
same,Cells having neurites with a length at least twice the long diameter of cell/total number of cells,"Table 3 Run No. 10, 0.03 mM, control 1.7 ± 0.7",11.6 ± 2.0%
same,Cells having neurites with a length at least twice the long diameter of cell/total number of cells,[3],10.6 ± 4.5%
"CNc1nc(N2CCNCC2)ncc1CCO [Compound 140, 2-Piperazino-5-(2-hydroxyethyl)-4-methylaminopyrimidine 2-naphthalenesulfonate]",Cells having neurites with a length at least twice the long diameter of cell/total number of cells,[4],3.7 ± 1.4%
"Cl.c1nc(N2CCNCC2)nc2c1CCC2 [Compound 202, 6,7-Dihydro-2-piperazino(5H)cyclopentapyrimidine hydrochloride]",Cells having neurites with a length at least twice the long diameter of cell/total number of cells,"Table 3 Run No. 6, 0.1 mM, control 4.4 ± 0.9",5.6 ± 1.1%
CN1C(=O)Cc2cnc(N3CCNCC3)nc21 [Compound 410],Cells having neurites with a length at least twice the long diameter of cell/total number of cells,[5],22.4 ± 2.9%
same,Cells having neurites with a length at least twice the long diameter of cell/total number of cells,[6],36.7 ± 6.1%
same,Cells having neurites with a length at least twice the long diameter of cell/total number of cells,[7],15.5 ± 0.3%
CN1C(=O)Cc2cnc(N3CCNCC3)nc21 [Compound 412],Cells having neurites with a length at least twice the long diameter of cell/total number of cells,"Table 3 Run No. 3, 0.3 mM, control 3.9 ± 0.3",16.6 ± 2.6%
same,Cells having neurites with a length at least twice the long diameter of cell/total number of cells,"Table 3 Run No. 3, 1 mM, control 3.9 ± 0.3",44.2 ± 1.4%
same,Cells having neurites with a length at least twice the long diameter of cell/total number of cells,[8],15.8 ± 2.3%
same,Cells having neurites with a length at least twice the long diameter of cell/total number of cells,[9],27.9 ± 2.9%
same,Cells having neurites with a length at least twice the long diameter of cell/total number of cells,[10],47.8 ± 0.4%
same,Cells having neurites with a length at least twice the long diameter of cell/total number of cells,[5],18.4 ± 0.5%
same,Cells having neurites with a length at least twice the long diameter of cell/total number of cells,[6],49.5 ± 3.5%
same,Cells having neurites with a length at least twice the long diameter of cell/total number of cells,[7],32.6 ± 1.3%
CN1C(=O)Cc2cnc(N3CCNCC3)nc21 [Compound 414],Cells having neurites with a length at least twice the long diameter of cell/total number of cells,[5],15.0 ± 4.0%
same,Cells having neurites with a length at least twice the long diameter of cell/total number of cells,[6],33.4 ± 2.6%
same,Cells having neurites with a length at least twice the long diameter of cell/total number of cells,[7],43.6 ± 7.8%
CN1C(=O)Cc2cnc(N3CCNCC3)nc21 [Compound 416],Cells having neurites with a length at least twice the long diameter of cell/total number of cells,"Table 3 Run No. 8, 0.1 mM, control 3.7 ± 0.4",11.7 ± 3.3%
same,Cells having neurites with a length at least twice the long diameter of cell/total number of cells,[5],40.4 ± 9.2%
same,Cells having neurites with a length at least twice the long diameter of cell/total number of cells,[6],48.7 ± 5.7%
"CN1C(=O)Cc2cnc(N3CCNCC3)nc21.O=P(O)(O)O [Compound 418, 5,6-Dihydro-7-methyl-6-oxo-2-piperazino(7H)pyrrolo[2,3-d]pyrimidine phosphate]",Cells having neurites with a length at least twice the long diameter of cell/total number of cells,[5],16.6 ± 1.1%
same,Cells having neurites with a length at least twice the long diameter of cell/total number of cells,[6],29.6 ± 3.3%
same,Cells having neurites with a length at least twice the long diameter of cell/total number of cells,[7],47.4 ± 1.6%
CN1C(=O)Cc2cnc(N3CCNCC3)nc21 [Compound 420],Cells having neurites with a length at least twice the long diameter of cell/total number of cells,[5],16.5 ± 2.1%
same,Cells having neurites with a length at least twice the long diameter of cell/total number of cells,[6],30.6 ± 5.0%
same,Cells having neurites with a length at least twice the long diameter of cell/total number of cells,[7],47.5 ± 0.6%
"COCCN1C(=O)Cc2cnc(N3CCNCC3)nc21.O=C(O)/C=C\C(=O)O [Compound 430, 5,6-Dihydro-7-(2-methoxyethyl)-6-oxo-2-piperazino(7H)pyrrolo[2,3-d]pyrimidine maleate]",Cells having neurites with a length at least twice the long diameter of cell/total number of cells,[11],7.2 ± 1.9%
same,Cells having neurites with a length at least twice the long diameter of cell/total number of cells,[9],11.7 ± 1.8%
same,Cells having neurites with a length at least twice the long diameter of cell/total number of cells,[10],13.4 ± 0.4%
same,Cells having neurites with a length at least twice the long diameter of cell/total number of cells,"Table 3 second Run No. 5, 0.3 mM, control 4.5 ± 0.3",7.6 ± 0.8%
same,Cells having neurites with a length at least twice the long diameter of cell/total number of cells,[12],9.0 ± 0.8%
"CN1C(=O)Cc2cnc(N3CCN(Cc4ccccc4)CC3)nc21 [Compound 434, 2-(4-Benzylpiperazino)-5,6-dihydro-7-methyl-6-oxo(7H)pyrrolo[2,3-d]pyrimidine 2-naphthalenesulfonate]",Cells having neurites with a length at least twice the long diameter of cell/total number of cells,[13],6.0 ± 1.2%
"CN1C(=O)Cc2cnc(N3CCN(Cc4ccc5c(c4)OCO5)CC3)nc21 [Compound 436, 5,6-Dihydro-7-methyl-2[4-(3,4-methylenedioxyphenylmethyl)piperazino]-6-oxo(7H)pyrrolo[2,3-d]pyrimidine]",Cells having neurites with a length at least twice the long diameter of cell/total number of cells,[4],14.3 ± 2.9%
same,Cells having neurites with a length at least twice the long diameter of cell/total number of cells,[13],15.6 ± 7.3%
same,Cells having neurites with a length at least twice the long diameter of cell/total number of cells,[14],12.5 ± 6.2%
"CC(=O)N1CCN(c2ncc3c(n2)N(C)C(=O)C3)CC1 [Compound 440, 2-(4-Acetylpiperazino)-5,6-dihydro-7-methyl-6-oxo(7H)pyrrolo[2,3-d]pyrimidine]",Cells having neurites with a length at least twice the long diameter of cell/total number of cells,[15],5.8 ± 1.0%
same,Cells having neurites with a length at least twice the long diameter of cell/total number of cells,[16],12.9 ± 4.1%
CCOC(=O)N1CCN(c2ncc3c(n2)N(C)C(=O)C3)CC1 [Compound 442],Cells having neurites with a length at least twice the long diameter of cell/total number of cells,"Table 3 Run No. 2, 0.1 mM, control 1.9 ± 0.9",5.7 ± 0.5%
same,Cells having neurites with a length at least twice the long diameter of cell/total number of cells,[1],7.1 ± 2.6%
same,Cells having neurites with a length at least twice the long diameter of cell/total number of cells,[2],9.1 ± 0.8%
same,Cells having neurites with a length at least twice the long diameter of cell/total number of cells,[16],13.8 ± 1.2%
"CC1C(=O)N(C)c2nc(N3CCNCC3)ncc21.O=C(O)/C=C\C(=O)O (stereo not drawn) [Compound 446, 5,6-Dihydro-5,7-dimethyl-6-oxo-2-piperazino(7H)pyrrolo[2,3-d]pyrimidine maleate]",Cells having neurites with a length at least twice the long diameter of cell/total number of cells,"Table 3 Run No. 9, 0.5 mM, control 2.0 ± 1.0",6.3 ± 0.4%
same,Cells having neurites with a length at least twice the long diameter of cell/total number of cells,[15],9.2 ± 2.0%
"Cc1nc(N2CCNCC2)nc2c1CC(=O)N2C [Compound 464, 5,6-Dihydro-4,7-dimethyl-6-oxo-2-piperazino(7H)pyrrolo[2,3-d]pyrimidine]",Cells having neurites with a length at least twice the long diameter of cell/total number of cells,[11],7.1 ± 1.6%
same,Cells having neurites with a length at least twice the long diameter of cell/total number of cells,[8],10.1 ± 1.9%
same,Cells having neurites with a length at least twice the long diameter of cell/total number of cells,[10],13.1 ± 1.1%
"Cc1nc(N2CCNCC2)nc2c1CC(=O)N2C.Cl [Compound 466, 5,6-Dihydro-4,7-dimethyl-6-oxo-2-piperazino(7H)pyrrolo[2,3-d]pyrimidine hydrochloride]",Cells having neurites with a length at least twice the long diameter of cell/total number of cells,"Table 3 second Run No. 5, 0.1 mM, control 4.5 ± 0.3",5.4 ± 0.3%
same,Cells having neurites with a length at least twice the long diameter of cell/total number of cells,[12],13.1 ± 1.4%
CCC(C)N1Cc2nc(N3CCNCC3)ncc2C1=O (stereo not drawn) [Compound 638],Cells having neurites with a length at least twice the long diameter of cell/total number of cells,[13],6.5 ± 0.2%
CC(C)(C)N1Cc2nc(N3CCNCC3)ncc2C1=O [Compound 642],Cells having neurites with a length at least twice the long diameter of cell/total number of cells,[13],9.5 ± 1.2%
same,Cells having neurites with a length at least twice the long diameter of cell/total number of cells,[14],14.4 ± 4.0%
CCCC(C)N1Cc2nc(N3CCNCC3)ncc2C1=O (stereo not drawn) [Compound 646],Cells having neurites with a length at least twice the long diameter of cell/total number of cells,[3],7.3 ± 0.2%
NC(=O)CN1Cc2nc(N3CCNCC3)ncc2C1=O [Compound 652],Cells having neurites with a length at least twice the long diameter of cell/total number of cells,[2],4.5 ± 0.3%
CCOC(=O)CC1C(=O)N(C)c2nc(N3CCNCC3)ncc21 (stereo not drawn) [Compound 674],Cells having neurites with a length at least twice the long diameter of cell/total number of cells,"Table 3 Run No. 11, 0.03 mM, control 2.5 ± 0.6",4.2 ± 0.8%
same,Cells having neurites with a length at least twice the long diameter of cell/total number of cells,"Table 3 Run No. 11, 0.1 mM, control 2.5 ± 0.6",6.7 ± 1.3%
same,Cells having neurites with a length at least twice the long diameter of cell/total number of cells,"Table 3 Run No. 11, 0.3 mM, control 2.5 ± 0.6",4.5 ± 1.9%
